Data published in patent publication US20080261994A1, “CYCLOPROPANE COMPOUNDS AND PHARMACEUTICAL USE THEREOF” (Japan Tobacco Inc., priority 2003, published 2008).
Read-outs that look alike come from different tables or passages of the source.

Key:
Format in all cases: biochemical
[1] = target: T1, aggrecanase-1 (Homo sapiens, UniProt O75173); assay: Aggrecanase-1 inhibitory action (Particle Assay, GAG release from aggrecan-containing polyacrylamide particles)
T1 sequence (O75173 213-837): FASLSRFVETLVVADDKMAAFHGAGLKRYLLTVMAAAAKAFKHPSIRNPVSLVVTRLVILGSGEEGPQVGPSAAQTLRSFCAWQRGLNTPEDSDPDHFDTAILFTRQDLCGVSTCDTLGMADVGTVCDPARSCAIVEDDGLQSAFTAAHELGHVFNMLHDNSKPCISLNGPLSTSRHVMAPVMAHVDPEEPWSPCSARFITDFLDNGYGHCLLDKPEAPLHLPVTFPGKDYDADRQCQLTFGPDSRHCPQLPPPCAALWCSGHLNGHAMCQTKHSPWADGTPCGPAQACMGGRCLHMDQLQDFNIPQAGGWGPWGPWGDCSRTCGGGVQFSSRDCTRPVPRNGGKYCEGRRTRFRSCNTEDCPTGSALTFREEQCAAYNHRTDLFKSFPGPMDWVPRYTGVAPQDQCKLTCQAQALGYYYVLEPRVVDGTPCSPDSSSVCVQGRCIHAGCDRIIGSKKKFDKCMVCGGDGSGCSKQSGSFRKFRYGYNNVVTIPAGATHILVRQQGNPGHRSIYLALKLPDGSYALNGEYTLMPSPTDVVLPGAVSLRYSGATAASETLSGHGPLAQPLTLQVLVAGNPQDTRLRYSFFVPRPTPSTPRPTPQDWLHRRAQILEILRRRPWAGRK
In short: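 Enzyme and compound incubated with aggrecan-containing polyacrylamide particles in Tris-HCl buffer at 37° C for 15 h. Released GAG in supernatant measured with 1,9-dimethylmethylene blue at 595 nm against chondroitin sulfate standard; % inhibition from enzyme-free and inhibitor-free wells, reported as TC50 (μM).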

[2] = target: T2, MMP-1 (Homo sapiens, UniProt P03956); assay: MMP-1 inhibitory action (Type I collagen Activity Measurement kit, FITC-labeled collagen type I)
T2 sequence (P03956 100-469): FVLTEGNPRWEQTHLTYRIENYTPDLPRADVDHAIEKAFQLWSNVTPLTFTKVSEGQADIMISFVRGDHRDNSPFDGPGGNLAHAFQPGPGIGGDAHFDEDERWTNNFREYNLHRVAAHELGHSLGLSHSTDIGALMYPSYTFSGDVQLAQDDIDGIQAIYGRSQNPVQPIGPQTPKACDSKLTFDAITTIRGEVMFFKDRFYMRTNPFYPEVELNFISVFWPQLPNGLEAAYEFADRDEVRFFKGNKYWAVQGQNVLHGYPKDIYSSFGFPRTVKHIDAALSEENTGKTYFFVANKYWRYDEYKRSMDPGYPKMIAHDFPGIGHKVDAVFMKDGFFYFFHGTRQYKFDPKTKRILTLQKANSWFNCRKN

[3] = target: T3, Recombinant Human MMP-13 (Homo sapiens, UniProt P45452); assay: MMP-13 inhibitory activity (MMP-13 specific fluorescent substrate with quencher)
T3 construct: purchased R&D systems 511-MM
Procedure: Inhibitory activity of tested compounds on MMP-13 was measured using MMP-13 specific fluorescent substrate with quencher.
The enzyme and substrate were diluted with Tris-HCl buffer, and test compounds were diluted with dimethyl sulfoxide (DMSO).
Test compounds and the enzyme (Recombinant Human MMP-13: R&D systems, 511-MM) were added into 96-well plate. The reaction was initiated by adding synthetic substrate (7-MCA-Pro-CHA-Gly-NVal-His-Ala-DPA: enzyme systems products, Met-06) into the plate. After incubation at 25° C. for 1 h, the reaction was terminated by addition of reaction terminating solution containing acetic acid. Fluorescence intensity of each well was measured (Ex: 325 nm, […] 405 nm) and the MMP-13 inhibitory activity of the compound in each well (%) was calculated based on the values of enzyme-free well and inhibitor-free well. The inhibitory activity of the compound was represented as IC50 (μM).

[4] = Experimental Example 1, read-out: IC50 AG1
[5] = Experimental Example 2, read-out: IC50 MMP1
[6] = Experimental Example 3, read-out: IC50 MMP13
[7] = aggrecanase-1 inhibitory action, read-out: IC50 AG1 (Experimental Example 1)
[8] = MMP-1 inhibitory action, FITC-labeled collagen type I, 37° C. for 3 hr, read-out: IC50 MMP1 (Experimental Example 2)
[9] = Recombinant Human MMP-13, fluorescent substrate, 25° C. for 1 h, read-out: IC50 MMP13 (Experimental Example 3)

IC50 [1, 4] [nM] | IC50 [2, 5] [nM] | IC50 [3, 6] [nM] | IC50 [1, 7] [nM] | IC50 [2, 8] [nM] | IC50 [3, 9] [nM] | SMILES
< 1000 | ≥ 1000 | < 1000 |  |  |  | O=C(NCC1(c2ccccc2)CC1(NS(=O)(=O)c1ccc(-c2ccc(Cl)cc2)s1)C(=O)O)C1CC1 (stereo not drawn) [Example 2-379]
< 1000 | ≥ 1000 | < 1000 |  |  |  | COCC1(c2ccccc2)CC1(NS(=O)(=O)c1ccc(-c2ccc(Cl)cc2)s1)C(=O)O (stereo not drawn) [Example 2-386]
 |  |  | < 1000 | ≥ 1000 | < 100 | CC(=O)Nc1cccc(C2CC2(NS(=O)(=O)c2ccc(-c3ccc(Cl)cc3)cc2)C(=O)O)c1 (stereo not drawn) [Example 1-40]
≥ 1000 | ≥ 1000 | ≥ 1000 |  |  |  | CC1[C@H](c2ccccc2)[C@]1(NS(=O)(=O)N1CCC(OCc2cc(Cl)ccc2Cl)C1)C(=O)O (stereo partly drawn) [Example 2-551]
 |  |  | < 1000 | ≥ 10000 | < 1000 | CC(C)(C)C1CC1(NS(=O)(=O)c1ccc(-c2ccc(Cl)cc2)s1)C(=O)O (stereo not drawn) [Example 2-62]
≥ 1000 | ≥ 1000 | ≥ 1000 |  |  |  | CC1[C@H](c2ccccc2)[C@]1(NS(=O)(=O)N1CCN(C/C=C/c2ccccc2)CC1)C(=O)O (stereo partly drawn) [Example 2-537]
 |  |  | < 100 | < 1000 | < 100 | O=C(O)[C@]1(NS(=O)(=O)c2ccc(-c3cc(C(F)(F)F)on3)s2)[C@H](CO)[C@@H]1c1ccccc1 (relative stereo) [Example 2-10, (1R*,2R*,3R*)-2-hydroxymethyl-3-phenyl-1-[5-(5-trifluoromethyl-isoxazol-3-yl)-thiophene-2-sulfonylamino]-cyclopropanecarboxylic acid]
 |  |  | < 1000 | ≥ 10000 | ≥ 1000 | CCC1CC1(NS(=O)(=O)c1ccc(-c2ccc(Cl)cc2)s1)C(=O)O (stereo not drawn) [Example 2-48]
< 100 | ≥ 1000 | < 100 |  |  |  | CCOC(=O)CSCC1(c2ccccc2)CC1(NS(=O)(=O)c1ccc(-c2ccc(Cl)cc2)s1)C(=O)O (stereo not drawn) [Example 2-352]
 |  |  | < 100 | ≥ 10000 | < 100 | O=C(O)C1(NS(=O)(=O)c2ccc(-c3ccc(Cl)cn3)s2)CC1c1cccc(Cn2cccn2)c1 (stereo not drawn) [Example 2-56]
< 1000 | ≥ 10000 | < 1000 |  |  |  | O=C(O)C1(NS(=O)(=O)c2ccc(-c3ccc(Cl)cc3)s2)CC1(Cn1ccnc1)c1ccccc1 (stereo not drawn) [Example 2-346]
< 100 | < 1000 | < 1000 |  |  |  | C[C@]1(c2ccccc2)C[C@@]1(NS(=O)(=O)c1ccc(-c2cc(C(F)F)no2)s1)C(=O)O [Example 2-422]
 |  |  | < 1000 | ≥ 10000 | < 1000 | O=C(O)C1(NS(=O)(=O)c2ccc(-c3ccc(Cl)cc3)s2)CC1c1ccccc1OCc1ccccc1 (stereo not drawn) [Example 1-84]
 |  |  | < 100 | ≥ 1000 | < 100 | O=C(O)[C@]1(NS(=O)(=O)c2ccc(-c3ccc(Cl)cc3)s2)C[C@@H]1c1cccc(NCc2cccnc2)c1 [Example 2-173]
 |  |  | ≥ 1000 | ≥ 10000 | ≥ 10000 | CC1CCN(c2ccc(S(=O)(=O)N[C@@]3(C(=O)O)C[C@@H]3c3ccccc3)s2)CC1 [Example 2-256]
 |  |  | < 1000 | ≥ 10000 | < 1000 | O=C(CN1CCOCC1)Nc1cccc(C2CC2(NS(=O)(=O)c2ccc(-c3ccc(Cl)cc3)s2)C(=O)O)c1 (stereo not drawn) [Example 2-261]
< 1000 | ≥ 1000 | < 1000 |  |  |  | COCCCC1(c2ccccc2)CC1(NS(=O)(=O)c1ccc(-n2cc(Cl)cn2)s1)C(=O)O (stereo not drawn) [Example 2-560]
 |  |  | < 100 | ≥ 1000 | < 1000 | O=C(O)c1cccc([C@H]2C[C@@]2(NS(=O)(=O)c2ccc(-c3ccc(Cl)cc3)s2)C(=O)O)c1 [Example 2-175]
< 100 | ≥ 1000 | < 100 |  |  |  | CC1[C@H](c2ccccc2)[C@]1(NS(=O)(=O)c1ccc2c(c1)Cc1cc(Br)ccc1-2)C(=O)O (stereo partly drawn) [Example 2-286]

IC50 [1, 4] [nM] | IC50 [2, 5] [nM] | IC50 [3, 6] [nM] | IC50 [1, 7] [nM] | IC50 [2, 8] [nM] | IC50 [3, 9] [nM] | SMILES
< 100 | < 100 | < 100 |  |  |  | CCC1[C@H](c2ccccc2)[C@]1(NS(=O)(=O)c1ccc(-c2cc(C(F)(F)F)on2)s1)C(=O)O (stereo partly drawn) [Example 2-328]
 |  |  | ≥ 1000 | ≥ 10000 | < 1000 | O=C(O)C1(NS(=O)(=O)N2CCN(c3ncc(Br)cn3)CC2)CC1c1ccccc1 (stereo not drawn) [Example 2-155]
< 100 | < 100 | < 100 |  |  |  | O=C(NO)C1(NS(=O)(=O)c2ccc(-c3cc(C(F)(F)F)on3)s2)C2Cc3ccccc3C21 (stereo not drawn) [Example 2-495]
≥ 1000 | ≥ 1000 | ≥ 1000 |  |  |  | CC(C)CCN1CCN(S(=O)(=O)N[C@@]2(C(=O)O)C(C)[C@@H]2c2ccccc2)CC1 (stereo partly drawn) [Example 2-530]
 |  |  | < 1000 | ≥ 10000 | < 100 | O=C(O)C1(NS(=O)(=O)c2ccc(-c3ccc(Cl)cc3)cc2)CC1c1cccc(OCc2cccnc2)c1 (stereo not drawn) [Example 1-76]
< 1000 | ≥ 10000 | < 1000 |  |  |  | O=C(NCC1(c2ccccc2)CC1(NS(=O)(=O)c1ccc(-c2ccc(Cl)cc2)s1)C(=O)O)[C@@H]1CCCO1 (stereo partly drawn) [Example 2-385]
≥ 1000 | ≥ 10000 | ≥ 10000 |  |  |  | Cc1cc(C2CC2(NS(=O)(=O)c2ccc(-c3cc(C(F)(F)F)on3)s2)C(=O)O)no1 (stereo not drawn) [Example 2-314]
< 100 | < 100 | < 100 |  |  |  | C=C(Cl)c1cnn(-c2ccc(S(=O)(=O)N[C@@]3(C(=O)O)C(C)[C@@H]3c3ccccc3)s2)c1 (stereo partly drawn) [Example 2-545]
≥ 1000 | ≥ 1000 | < 100 |  |  |  | CC1[C@H](c2ccccc2)[C@]1(NS(=O)(=O)c1ccc(-n2cc(C(=O)O)cn2)s1)C(=O)O (stereo partly drawn) [Example 2-522]
 |  |  | ≥ 1000 | ≥ 10000 | < 1000 | O=C(O)C1(NS(=O)(=O)c2ccc(-c3ccc(Cl)cc3)s2)CC1c1ccc(N2CCOCC2)cc1 (stereo not drawn) [Example 2-245]
< 1000 | ≥ 1000 | ≥ 1000 |  |  |  | CN1CCN(CC2(c3ccccc3)CC2(NS(=O)(=O)c2ccc(-c3cc(C(F)(F)F)on3)s2)C(=O)O)CC1 (stereo not drawn) [Example 2-342]
< 100 | ≥ 1000 | < 100 |  |  |  | CC(C)C(=O)NCCCC1(c2ccccc2)CC1(NS(=O)(=O)c1ccc(-c2ccc(Cl)cc2)s1)C(=O)O (stereo not drawn) [Example 2-319]
 |  |  | ≥ 10000 | ≥ 10000 | < 1000 | CCCC#Cc1ccc(S(=O)(=O)N[C@@]2(C(=O)O)C[C@@H]2c2ccccc2)s1 [Example 2-133]
 |  |  | < 100 | ≥ 10000 | < 100 | O=C(O)C1(NS(=O)(=O)c2ccc(-c3ccc(Cl)cc3)s2)CC1c1ccccc1OCc1cccnc1 (stereo not drawn) [Example 2-22]
 |  |  | < 1000 | ≥ 10000 | < 1000 | O=C(O)[C@]1(NS(=O)(=O)c2ccc(-c3ccc(Cl)nc3)s2)C[C@@H]1c1ccccc1 [Example 2-27]
 |  |  | < 100 | ≥ 10000 | < 1000 | CC(C)(O)COc1ccccc1C1CC1(NS(=O)(=O)c1ccc(-c2ccc(Cl)cc2)s1)C(=O)O (stereo not drawn) [Example 2-25]
 |  |  | ≥ 1000 | ≥ 10000 | ≥ 1000 | Cc1nc(-c2ccc(S(=O)(=O)N[C@@]3(C(=O)O)C[C@@H]3c3ccccc3)s2)no1 [Example 2-51]
 |  |  | < 1000 | ≥ 1000 | < 100 | Cc1cc(-c2ccc(S(=O)(=O)N[C@@]3(C(=O)O)C[C@@H]3c3ccccc3)s2)no1 [Example 2-85]
